{"source": "paper PMC10384246", "about": "“Discovery of New Uracil and Thiouracil Derivatives as Potential HDAC Inhibitors” (Pharmaceuticals, 2023)", "key": {"[1]": {"test_system": "HepG2 (human liver carcinoma cell line)", "assay": "MTT anti-proliferative assay, HepG2", "format": "cell-based", "conditions": "HepG2, mean of at least three experiments, read-out: Cytotoxicity IC50 HepG-2", "procedure": "(§1) Sorafenib was used as a reference drug.\n(§2) Anti-proliferative activity activities were tested using MTT assay as described in Supplementary Materials. […]\n(§3) S2.1. In vitro anti-proliferative activities\n(§4) The in vitro antiproliferative activities of all the synthesized compounds against three human tumor cell lines namely, MCF-7 (human breast cancer cell line), HepG2 (human liver […]\n(§5) in the literature, using MTT assay protocol. Sorafenib was used in this test as a positive control.\n(§6) The anti-proliferative activity was assessed quantitatively as follows.\n(§7) Human cancer cell lines were seeded in 96-well plates at a density of 3-8 × 10^3 cells/well.\n(§8) Next, the cells were incubated for 12 h in a 5% CO2 incubator at 37 °C. Then, for each well, the growth medium was exchanged with 0.1 ml of fresh medium containing graded concentrations of the test compounds or equal DMSO. Then 10 μl MTT solution ([…]) was added to each well, and the cells were incubated for additional 4 h. The crystals of MTT-formazan were dissolved in 100 μl of DMSO; the absorbance of each well was measured at 490 nm using an automatic ELISA reader system (TECAN, CHE). The IC50 values were calculated using the nonlinear regression fitting models (Graph Pad, Prism Version 5). The data represented the mean of three independent experiments in triplicate and were expressed as means ± SD. The IC50 value was […]\n(§9) defined as the concentration at which 50% of the cells could survive. […]"}, "HCT-116 cells [2]": {"test_system": "HCT-116 cells", "assay": "Flow cytometry cell cycle analysis", "format": "cell-based, human", "conditions": "78 µM, 72 h, share of cells in phase", "procedure": "The effect of the most promising compound, 5m, against the cell cycle was tested in HCT116 cells.\nCell cycle analysis was performed for compound 5m as described in Supplementary Materials. […]\ndefined as the concentration at which 50% of the cells could survive. The results were expressed […]\nS2.2. In-vitro DNA-Flow cytometric (cell cycle) analysis. […]\nh. Then, the tested cells were collected by trypsinization and washed in PBS. Ice - cold absolute ethanol was used for fixation of the collected cells. The cells were stained with Cycle TESTTM PLUS DNA Reagent Kit (BD Biosciences, San Jose, CA) accord ing to the manufacturer's instructions. Cell -cycle distribution was evaluated using a flow cytometer.\n(§10) S2.3. Annexin V - FITC apoptosis assay.\n(§11) To detect the apoptosis induced by compound 5m , HCT-116 cells were seeded and incubated overnight and then treated with compound 5m at concentrations of 78 µM for 72 h. DMSO was chosen as the negative control. After that, the cells were collected and washed with PBS two successive times with centrifugation. Apoptosis detection kit (BD Biosciences, San Jose, CA) was used in this test. According to the manufacturer's protocol the cells were stained by Annexin V-FITC and propidium iodide (PI) in the binding b uffer for 20min at room temperature in the dark. Using a flow cytometer, Annexin V-FITC and PI binding were analyzed. Flowjo software was used to analyze the frequencies in all quadrants.\n(§12) S2.4. Apoptotic effect of compound 5m treatment. […]\n(§13) cells treated with compound 5m. […]"}, "caspase-8": {"test_system": "caspase-8", "assay": "qRT-PCR caspase-8 level", "format": "cell-based, human", "conditions": "HCT-116 cells, 72 h, versus untreated cells", "experimental": "(§14) Quantitative Real Time Reverse-Transcriptase PCR technique (determination of caspase-3\n(§15) The total RNA was extracted from the control and treated cells by using RNeasy mini kit\n(§16) (Qiagen, Germany) according the manufacturer's protocol. Then, the isolated RNAs were\n(§17) quantitatively and qualitatively assessed using a NanoDrop®1000 spectrophotometer (Thermo\n(§18) Scientific, Wilmington, DE, USA). The RNA aliquots were preserved at - 80 °C till the next\n(§19) Reverse transcription and quantification of caspase-3 and caspase-8 mRNA\nexpressions using qRT-PCR:\n(§20) iScriptTM One-Step RT-PCR Kit with SYBR® Green kit (BIORAD Laboratories, USA) was used\n(§21) for reverse transcription of total RNA and quantification of the targeted mRNA expressions in\n(§22) single reaction tube. In depth, the complementary DNA (cDNA) was performed efficiently from\n(§23) the isolated RNA using iScriptTM MMLV (Moloney Murine Leukemia Virus) reverse\n(§24) transcriptase. While, the relative expression levels of caspase -3 and caspase-8 mRNA were\n(§25) determined using 2X SYBR® Green RT -PCR Reaction Mix, containing iTaq TM DNA polymerase\n(§26) and SYBR® Green I dye, on the basis of the manufacturer’s guidelines. GAPDH was used as\n(§27) housekeeping gene for data normalization. The reaction Mix consisted of 10 μL of 2X SYBR®\n(§28) Green RT-PCR Reaction Mix, 1 μl of forward primer, 1 μl of reverse primer, 1 μl of iScript […]\n(§29) were determined by using the 2- ΔΔct method."}, "caspase-3": {"test_system": "caspase-3", "assay": "qRT-PCR caspase-3 level", "format": "cell-based, human", "conditions": "HCT-116 cells, 72 h, versus untreated cells", "experimental": "as §14, §15, §16, §17, §18, §19\nexpressions using qRT-PCR:\nas §20, §21, §22, §23, §24, §25, §26, §27, §28, §29"}, "HDAC4": {"target": "HDAC4 (Homo sapiens, UniProt P56524)", "sequence (P56524 whole entry)": "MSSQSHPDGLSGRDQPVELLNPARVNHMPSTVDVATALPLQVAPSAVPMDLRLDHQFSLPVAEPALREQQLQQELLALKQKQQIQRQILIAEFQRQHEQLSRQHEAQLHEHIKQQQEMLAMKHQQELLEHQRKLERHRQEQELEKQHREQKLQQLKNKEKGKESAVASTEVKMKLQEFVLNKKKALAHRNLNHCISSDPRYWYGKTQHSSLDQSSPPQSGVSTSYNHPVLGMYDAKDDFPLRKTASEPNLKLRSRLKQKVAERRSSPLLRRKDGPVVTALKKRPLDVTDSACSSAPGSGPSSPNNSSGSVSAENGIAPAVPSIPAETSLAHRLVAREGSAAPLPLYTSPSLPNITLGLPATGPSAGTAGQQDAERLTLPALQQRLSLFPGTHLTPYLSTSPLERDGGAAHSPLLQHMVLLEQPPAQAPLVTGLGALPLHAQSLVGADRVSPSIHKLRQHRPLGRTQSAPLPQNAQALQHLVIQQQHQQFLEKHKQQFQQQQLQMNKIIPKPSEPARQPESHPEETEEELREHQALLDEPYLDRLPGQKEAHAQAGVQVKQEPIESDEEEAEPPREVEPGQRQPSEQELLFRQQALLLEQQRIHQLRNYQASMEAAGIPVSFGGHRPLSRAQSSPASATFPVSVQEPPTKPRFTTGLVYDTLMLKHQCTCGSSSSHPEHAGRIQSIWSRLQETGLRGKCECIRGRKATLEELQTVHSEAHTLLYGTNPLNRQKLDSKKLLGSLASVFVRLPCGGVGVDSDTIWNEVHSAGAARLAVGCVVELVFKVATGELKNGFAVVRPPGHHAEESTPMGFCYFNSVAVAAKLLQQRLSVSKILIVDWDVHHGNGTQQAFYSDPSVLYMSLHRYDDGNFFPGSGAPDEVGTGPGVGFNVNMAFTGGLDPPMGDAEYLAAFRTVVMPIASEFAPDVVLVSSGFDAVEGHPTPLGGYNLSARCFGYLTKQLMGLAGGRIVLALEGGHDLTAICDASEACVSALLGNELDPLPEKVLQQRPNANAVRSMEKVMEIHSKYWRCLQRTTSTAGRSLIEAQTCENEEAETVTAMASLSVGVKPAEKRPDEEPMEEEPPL", "assay": "In vitro HDAC4 inhibitory assay", "format": "biochemical"}, "[3]": {"test_system": "colorectal carcinoma (HCT-116)", "assay": "MTT anti-proliferative assay, HCT-116", "format": "cell-based", "conditions": "Homo sapiens, HCT-116, read-out: Cytotoxicity IC50 HCT-116", "procedure": "as §1, §2, §3, §4, §5, §6, §7, §8, §9"}, "HCT-116 cells [4]": {"test_system": "HCT-116 cells", "assay": "Annexin-V/propidium iodide apoptosis assay", "format": "cell-based, human", "conditions": "78 µM, 72 h", "procedure": "The tested cells were subjected to 78 µM from compound 5m with an incubation time of 72 h.\nThe apoptotic effect of the compound 5m was tested as described in Supplementary data. Quantitative Real-Time Reverse-Transcriptase PCR (qRT-PCR) technique Using qRT-PCR, the effect of compound 5m on the expression of cleaved caspase-3 and caspase-8 was determined (Supplementary Materials). […]\nas §10, §11, §12, §13"}, "HDAC1": {"target": "HDAC1 (Homo sapiens, UniProt Q13547)", "sequence (Q13547 whole entry)": "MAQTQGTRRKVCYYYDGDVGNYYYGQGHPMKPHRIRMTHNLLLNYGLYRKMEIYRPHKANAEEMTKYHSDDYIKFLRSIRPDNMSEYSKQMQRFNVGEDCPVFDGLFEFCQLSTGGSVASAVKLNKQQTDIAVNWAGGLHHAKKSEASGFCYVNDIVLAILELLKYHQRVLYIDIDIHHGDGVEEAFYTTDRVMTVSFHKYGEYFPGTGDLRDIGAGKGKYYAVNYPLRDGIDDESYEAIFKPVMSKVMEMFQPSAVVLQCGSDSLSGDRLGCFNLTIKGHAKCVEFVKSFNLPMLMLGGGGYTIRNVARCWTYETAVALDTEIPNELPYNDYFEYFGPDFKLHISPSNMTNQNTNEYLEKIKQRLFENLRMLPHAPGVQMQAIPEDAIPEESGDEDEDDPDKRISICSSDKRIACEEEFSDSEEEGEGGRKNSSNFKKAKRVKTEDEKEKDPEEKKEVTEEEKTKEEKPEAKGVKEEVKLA", "assay": "In vitro HDAC1 inhibitory assay", "format": "biochemical"}, "[5]": {"test_system": "MCF-7 (human breast cancer cell line)", "assay": "MTT anti-proliferative assay, MCF-7", "format": "cell-based", "conditions": "MCF7, MCF-7, mean of at least three experiments, read-out: Cytotoxicity IC50 MCF-7", "procedure": "as §1, §2, §3, §4, §5, §6, §7, §8, §9"}, "in vitro": {"assay": "in vitro", "conditions": "human"}}, "note": "Several values for one entry are separate records, joined by “and”; a condition that tells them apart may be missing. Identical values can stand only once.", "data": [{"compound": "CCCn1c(N)c(C(c2ccc(Cl)cc2)c2c(N)n(CCC)c(=O)[nH]c2=O)c(=O)[nH]c1=O", "note": "[Compound 5m, 5,5′-((4-Chlorophenyl)methylene)bis(6-amino-1-propylpyrimidine-2,4(1H,3H)-dione)]", "values": [{"measurement": "IC50", "setting": "[1]", "value": "3.3 ± 0.56", "unit": "µM"}, {"measurement": "melting point", "value": "257 to 258", "unit": "°C"}, {"measurement": "%G0–G1", "setting": "HCT-116 cells [2]", "value": 55.31, "unit": "%"}, {"measurement": "%G2/M", "setting": "HCT-116 cells [2]", "value": 9.81, "unit": "%"}, {"measurement": "%S", "setting": "HCT-116 cells [2]", "value": 34.88, "unit": "%"}, {"measurement": "RT-PCR (Fold Change) Caspase-8", "setting": "caspase-8", "value": "2.5 Fold Change and 2.655 Fold Change"}, {"measurement": "RT-PCR (Fold Change) Caspase-3", "setting": "caspase-3", "value": "5 Fold Change and 4.891 Fold Change"}, {"measurement": "IC50", "setting": "HDAC4", "value": 6.14, "unit": "µM"}, {"measurement": "IC50", "setting": "[3]", "value": "78 ± 2", "unit": "µM"}, {"measurement": "Apoptotic effect, times/fold compared to control cells", "setting": "HCT-116 cells [4]; 37.59% versus 2.17% in control", "value": "~17"}, {"measurement": "DNA Content (%) Early (early apoptosis)", "setting": "HCT-116 cells [4]; Annexin-V/PI", "value": 22.36, "unit": "%"}, {"measurement": "DNA Content (%) Late (late apoptosis)", "setting": "HCT-116 cells [4]; Annexin-V/PI", "value": 13.14, "unit": "%"}, {"measurement": "DNA Content (%) Total (apoptotic effect)", "setting": "HCT-116 cells [4]; Annexin-V/PI", "value": 37.59, "unit": "%"}, {"measurement": "Necrosis", "setting": "HCT-116 cells [4]; Annexin-V/PI", "value": 2.09}, {"measurement": "IC50", "setting": "HDAC1", "value": 0.108, "unit": "µM"}, {"measurement": "IC50", "setting": "[5]", "value": "52 ± 3.5", "unit": "µM"}, {"measurement": "IC50", "setting": "in vitro", "value": "65.7 ± 1.7", "unit": "µM"}]}]}
